This passage reports Ki results from patent US5684026A, “Aminocyclopentane derivative” (priority 1994, dated 1997).

This experiment has as its target T1, α-glucosidase I (Baker's yeast) (Saccharomyces cerevisiae, UniProt P53008).
T1 construct: made in house; host or cells: Baker's yeast (native enzyme, prepared by the cited method)
T1 sequence (P53008 25-833 limits assumed): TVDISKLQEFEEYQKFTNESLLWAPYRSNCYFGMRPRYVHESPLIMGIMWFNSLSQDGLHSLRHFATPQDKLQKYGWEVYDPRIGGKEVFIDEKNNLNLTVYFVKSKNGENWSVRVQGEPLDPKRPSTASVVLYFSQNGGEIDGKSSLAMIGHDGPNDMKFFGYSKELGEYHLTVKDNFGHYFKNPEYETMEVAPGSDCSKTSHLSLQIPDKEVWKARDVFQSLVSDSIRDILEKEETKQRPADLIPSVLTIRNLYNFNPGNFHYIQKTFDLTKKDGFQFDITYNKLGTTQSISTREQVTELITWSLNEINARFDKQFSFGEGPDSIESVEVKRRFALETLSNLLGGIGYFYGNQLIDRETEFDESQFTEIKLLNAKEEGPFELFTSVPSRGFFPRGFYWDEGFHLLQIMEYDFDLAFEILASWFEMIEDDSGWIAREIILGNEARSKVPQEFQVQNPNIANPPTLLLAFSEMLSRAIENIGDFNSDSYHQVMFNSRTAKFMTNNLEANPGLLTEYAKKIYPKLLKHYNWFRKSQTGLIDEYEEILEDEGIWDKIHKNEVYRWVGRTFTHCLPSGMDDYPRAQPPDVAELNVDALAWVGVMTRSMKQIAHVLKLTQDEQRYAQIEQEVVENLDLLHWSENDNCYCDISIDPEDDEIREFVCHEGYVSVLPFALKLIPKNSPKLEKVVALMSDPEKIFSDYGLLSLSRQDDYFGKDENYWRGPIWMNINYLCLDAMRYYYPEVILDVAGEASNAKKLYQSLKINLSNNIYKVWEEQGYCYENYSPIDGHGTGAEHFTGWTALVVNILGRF
Kind of experiment: Inhibitory activity on α-glucosidase I (Ki). The class given is biochemical. As to conditions: α-glucosidase I, substrate 0.25-4.0 mM, 37° C., 1 hour; read-out: Ki. As to the method: The α-glucosidase I (Baker's yeast) and its substrate (α-D-Glcl→2α-D-Glcl→3α-D-Glc-O(CH2)6 COOCH3) employed herein were prepared in accordance with the method of I. Neverova et al., Anal. Biochem., 222, 190-196 (1994).
The following measurements were performed by the methods described in this literature.
Namely, 25 μl of a buffer solution containing α-glucosidase I was added to a microtube containing the above-mentioned sample and the substrate (α-D-Glcl→2α-D-Glcl→3α-D-Glc-O(CH2)6 COOCH3). After incubating at 37° C. for 1 hour, a 1.25M tris hydrochloride buffer solution (pH 7.6, 25 μl) was added to thereby cease .the reaction. Then the reaction mixture was transferred onto a microplate followed by the addition of 250 μl of a reaction buffer solution [developing solution; 1M tris hydrochloride buffer solution (pH 7.2) containing glucose oxidase (5 units/ml, manufactured by Sigma), horseradish peroxidase (1 purpurogallin units, manufactured by Sigma) and o-dianisidine dihydrochloride (40 μg/ml)]. Then the mixture was incubated at 37° C. for 30 minutes or until an increase in the absorbance attained a plateau. Then the absorbance (A450-650) of the o-dianisidine formed and oxidized by this enzyme reaction was measured. As a blank, the above reaction was repeated but adding neither the above-mentioned sample nor substrate and the absorbance was measured. Also, the above-mentioned reaction buffer solution was added to D-glucose of a known concentration and the resulting mixture was incubated followed by the measurement of the absorbance to thereby examine a relationship between D-glucose concentration and absorbance. Each measurement was effected in two wells at the same time.
Based on the above-mentioned relationship between D-glucose concentration and absorbance, the amount of glucose liberated from the substrate due to the enzyme reaction of α-glucosidase I in the presence of the sample was determined. From the result thus obtained, Km was determined and then Ki was determined from the sample amount and the Km value.

As a reminder, the Ki is a measure of affinity in units of concentration, obtained from inhibition or displacement. On to `OC[C@@]12OC(Nc3ccccc3)=N[C@@H]1[C@H](O)[C@@H](O)[C@@H]2O` [Compound 1-2L, (1S,5R,6S,7R,8S)-1-hydroxymethyl-3-phenylamino-2-oxa-4-azabicyclo[3.3.0]oct-3-ene-6,7,8-triol], for which the Ki turned out to be 51 µM.
